Source: patent EP4691473A1, “PLATYCLADUS ORIENTALIS EXTRACT, PREPARATION METHOD THEREFOR AND USE THEREOF” (Beijing Academy of TCM Beauty Supplements Co., Ltd., priority 2023, dated 2024)

How the values were obtained:
[1] = molecular target: 5α-reductase (Mus musculus, UniProt Q68FF9); assay: 5α-Reductase Inhibition Test (decrease in absorbance at 340 nm, NADPH/testosterone); type: biochemical; conditions: for A: absorbance decrease at 340 nm
Method: • (1) Test drug: Sample of Example 52 • (2) Positive control drug: Finasteride, a product of Merck Sharp & Dohme Limited; Appearance: Film-coated tablets, white after removal of the coating; Specification: 5 mg/tablet; Batch number: 0022050. Storage conditions: light-shielded, airtight, and stored at room temperature. • (3) Drug preparation: The sample of Example 52 was tested at 10 concentrations: 35 mg/mL (solute: the sample of Example 52, solvent: 20% aqueous ethanol solution) was adopted as the initial concentration, and nine 2.5-fold gradient dilutions were made by using 20% aqueous ethanol solution; and five 2-fold gradient dilutions of the positive control finasteride were made by using anhydrous ethanol. • (4) Reagents: Reduced coenzyme II (NADPH), a product of Sigma, Catalog number N7505, Batch number 041939; testosterone (T), a product of Merck, Catalog number T-037; Batch number FE03112002; Tris buffer: Shanghai Yuanye Biotechnology Co., Ltd., Batch number J17HR10516A. • (5) Test instrument: ZDN microplate reader, a product of BioTek.
Mouse liver was obtained by dissection, and was added into a Tris buffer at a ratio of 1:5 for homogenization at 0°C. The homogenized liver was centrifuged at 10000g for 15 minutes, the supernatant was centrifuged at 55000g for another hour, and then the supernatant was placed at 4°C for later use. Reagents and samples were added according to the reaction system. Sample of Example 52 and finasteride sample at each dilution were added 4 times. After incubation at 37°C for 60 minutes, the decrease in absorbance ΔA at 340nm was measured. Inhibition rate (%) = (blank ΔA−sample ΔA)/(blank ΔA) × 100 [formula]
The 5α-reductase reaction system is shown in Table 16: Table 16 Reagent amount for the reaction system (µL)

[2] = system: Malassezia; assay: Malassezia antibacterial test (microbroth method, OD600 after 72 hours); type: cell-based; conditions: Ketoconazole 4µg/mL, read-out: Malassezia inhibition rate, positive control
Method: A culture medium and Malassezia were mixed thoroughly by shaking until no sediment was present at the bottom. A sterile syringe was used to pipette 200-800 µL of the bacterial suspension into fresh culture medium and incubate at 30°C in a biochemical incubator. After 2-3 days of incubation, the sample was subcultured.
A sterile malt extract culture medium was transferred into a sterile 50mL centrifuge tube. The sterile malt extract culture medium was centrifuged at 25°C and 3500 rpm for 10 minutes. The supernatant was transferred to another sterile 50mL centrifuge tube for later use.
Each sample was diluted with fresh culture medium to a concentration of 50 mg/mL, 40 mg/mL, 30 mg/mL, 20 mg/mL, 10 mg/mL, or 5 mg/mL.
The culture medium and Malassezia were mixed thoroughly by shaking and transferred to a sterile 50mL centrifuge tube. The mixture was centrifuged at 25°C and 1000 rpm for 30 seconds. The supernatant was transferred to a sterile 50 mL centrifuge tube and centrifuge at 25°C and 3500 rpm for 10 minutes.
A microplate reader was set at a wavelength of 600 nm. […] The OD600 value of the bacterial suspension was detected at 600 nm. […]
The required volume of bacterial suspension was calculated. […]
The sterile 96-well culture plate was placed in a 30°C incubator. After 72 hours of incubation, the absorbance at 600nm was recorded. […]

5α-reductase, sequence (Q68FF9 whole entry): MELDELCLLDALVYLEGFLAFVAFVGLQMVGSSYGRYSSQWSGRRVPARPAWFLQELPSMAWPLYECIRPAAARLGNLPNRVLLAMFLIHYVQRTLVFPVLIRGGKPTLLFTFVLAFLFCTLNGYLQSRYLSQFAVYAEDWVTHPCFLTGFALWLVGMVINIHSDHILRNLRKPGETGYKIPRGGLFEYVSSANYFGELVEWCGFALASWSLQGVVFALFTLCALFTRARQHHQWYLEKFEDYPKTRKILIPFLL

Row | SMILES | inhibition at 0.003 µg/mL ([1]; Finasteride 0.003 µg/mL, read-out: Inhibition rate) [%] | inhibition at 0.006 µg/mL ([1]; Finasteride 0.006 µg/mL, read-out: Inhibition rate) [%] | inhibition at 0.012 µg/mL ([1]; Finasteride 0.012 µg/mL, read-out: Inhibition rate) [%] | inhibition at 0.025 µg/mL ([1]; Finasteride 0.025 µg/mL, read-out: Inhibition rate) [%] | inhibition at 0.05 µg/mL ([1]; Finasteride 0.050 µg/mL, read-out: Inhibition rate) [%] | A ([1]; Finasteride 0.003 µg/mL) | A ([1]; Finasteride 0.012 µg/mL) | A ([1]; Finasteride 0.025 µg/mL) | A ([1]; Finasteride 0.050 µg/mL) | inhibition at 4 µg/mL [2] [%]
1 | CC(C)(C)NC(=O)[C@H]1CC[C@H]2[C@@H]3CC[C@H]4NC(=O)C=C[C@]4(C)[C@H]3CC[C@]12C [Finasteride] | 6.12 | 15.4 | 26.3 | 39.2 | 63.1 | 0.10 | 0.08 | 0.07 | 0.04 | 
2 | CC(=O)N1CCN(c2ccc(OCC3COC(Cn4ccnc4)(c4ccc(Cl)cc4Cl)O3)cc2)CC1 (stereo not shown) [Ketoconazole] |  |  |  |  |  |  |  |  |  | 95 ± 3.59
